Data: patent US20100267561A1, “HERBICIDAL PYRIDAZINONE DERIVATIVES” (priority 2007, published 2010)

How the values were obtained:
Experiment in all cases: Test E pre-/postemergence plant response
Assay type in all cases: in vivo
Settings in all cases: scale 0 to 100
[1] = tested on: purple nutsedge (Cyperus rotundus)
Procedure, shortened: (§1)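 Plants scored visually versus controls on a 0–100 scale (100 = complete control) 14 to 21 days after treatment in the greenhouse. Test chemicals in a surfactant-containing non-phytotoxic solvent were applied to soil preemergence or to 1- to 4-leaf plants, 2–18 cm tall.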

[2] = tested on: barnyardgrass (Echinochloa crus-galli)
Procedure, shortened: as §1

[3] = tested on: southern (S.) sandbur (Cenchrus echinatus)
Procedure, shortened: as §1

[4] = tested on: johnsongrass (Sorghum halepense)
Procedure, shortened: as §1

[5] = tested on: annual bluegrass (Poa annua)
Procedure, shortened: as §1

[6] = tested on: dallisgrass (Paspalum dilatatum)
Procedure, shortened: as §1

[7] = tested on: naked crabgrass (Digitaria nuda)
Procedure, shortened: as §1

[8] = tested on: common purslane (Portulaca oleracea)
Procedure, shortened: as §1

[9] = tested on: black mustard (Brassica nigra)
Procedure, shortened: as §1

[10] = tested on: pitted morningglory (Ipomoea lacunosa)
Procedure, shortened: as §1

[11] = tested on: common groundsel (Senecio vulgaris)
Procedure, shortened: as §1

[12] = tested on: broadleaf signalgrass (Brachiaria platyphylla)
Procedure, shortened: as §1

[13] = tested on: bermudagrass (Cynodon dactylon)
Procedure, shortened: as §1

[14] = tested on: Italian ryegrass (Lolium multiflorum)
Procedure, shortened: as §1

[15] = tested on: large crabgrass (Digitaria sanguinalis)
Procedure, shortened: as §1

[16] = tested on: guineagrass (Panicum maximum)
Procedure, shortened: as §1

[17] = tested on: goosegrass (Eleusine indica)
Procedure, shortened: as §1

CCOC(=O)Oc1cnn(C)c(=O)c1-n1nc(-c2ccc(Cl)cc2)cc1C [Compound 53]
Plant response rating, Nutsedge, Purple ([1]; 16 g ai/ha, Preemergence): 0
Plant response rating, Nutsedge, Purple ([1]; 31 g ai/ha, Preemergence): 35
Plant response rating, Nutsedge, Purple ([1]; 62 g ai/ha, Preemergence): 98
Plant response rating, Nutsedge, Purple ([1]; Postemergence, 8 g ai/ha): 0
Plant response rating, Nutsedge, Purple ([1]; Postemergence, 16 g ai/ha): 0
Plant response rating, Nutsedge, Purple ([1]; Postemergence, 31 g ai/ha): 0
Plant response rating, Nutsedge, Purple ([1]; Postemergence, 62 g ai/ha): 0
Plant response rating, Barnyardgrass ([2]; 16 g ai/ha, Preemergence): 95
Plant response rating, Barnyardgrass ([2]; 31 g ai/ha, Preemergence): 100
Plant response rating, Barnyardgrass ([2]; 62 g ai/ha, Preemergence): 100
Plant response rating, Barnyardgrass ([2]; Postemergence, 8 g ai/ha): 100
Plant response rating, Barnyardgrass ([2]; Postemergence, 16 g ai/ha): 100
Plant response rating, Barnyardgrass ([2]; Postemergence, 31 g ai/ha): 100
Plant response rating, Barnyardgrass ([2]; Postemergence, 62 g ai/ha): 100
Plant response rating, Sandbur, S. ([3]; 16 g ai/ha, Preemergence): 30
Plant response rating, Sandbur, S. ([3]; 31 g ai/ha, Preemergence): 100
Plant response rating, Sandbur, S. ([3]; 62 g ai/ha, Preemergence): 100
Plant response rating, Sandbur, S. ([3]; Postemergence, 8 g ai/ha): 65
Plant response rating, Sandbur, S. ([3]; Postemergence, 16 g ai/ha): 80
Plant response rating, Sandbur, S. ([3]; Postemergence, 31 g ai/ha): 95
Plant response rating, Sandbur, S. ([3]; Postemergence, 62 g ai/ha): 100
Plant response rating, Johnsongrass ([4]; 16 g ai/ha, Preemergence): 70
Plant response rating, Johnsongrass ([4]; 31 g ai/ha, Preemergence): 90
Plant response rating, Johnsongrass ([4]; 62 g ai/ha, Preemergence): 95
Plant response rating, Johnsongrass ([4]; Postemergence, 8 g ai/ha): 50
Plant response rating, Johnsongrass ([4]; Postemergence, 16 g ai/ha): 100
Plant response rating, Johnsongrass ([4]; Postemergence, 31 g ai/ha): 100
Plant response rating, Johnsongrass ([4]; Postemergence, 62 g ai/ha): 100
Plant response rating, Bluegrass ([5]; 16 g ai/ha, Preemergence): 0
Plant response rating, Bluegrass ([5]; 31 g ai/ha, Preemergence): 0
Plant response rating, Bluegrass ([5]; 62 g ai/ha, Preemergence): 60
Plant response rating, Bluegrass ([5]; Postemergence, 8 g ai/ha): 0
Plant response rating, Bluegrass ([5]; Postemergence, 16 g ai/ha): 0
Plant response rating, Bluegrass ([5]; Postemergence, 31 g ai/ha): 0
Plant response rating, Bluegrass ([5]; Postemergence, 62 g ai/ha): 0
Plant response rating, Dallisgrass ([6]; 16 g ai/ha, Preemergence): 65
Plant response rating, Dallisgrass ([6]; 31 g ai/ha, Preemergence): 80
Plant response rating, Dallisgrass ([6]; 62 g ai/ha, Preemergence): 95
Plant response rating, Dallisgrass ([6]; Postemergence, 8 g ai/ha): 0
Plant response rating, Dallisgrass ([6]; Postemergence, 16 g ai/ha): 20
Plant response rating, Dallisgrass ([6]; Postemergence, 31 g ai/ha): 30
Plant response rating, Dallisgrass ([6]; Postemergence, 62 g ai/ha): 75
Plant response rating, Crabgrass, Naked ([7]; 16 g ai/ha, Preemergence): 80
Plant response rating, Crabgrass, Naked ([7]; 31 g ai/ha, Preemergence): 100
Plant response rating, Crabgrass, Naked ([7]; 62 g ai/ha, Preemergence): 100
Plant response rating, Crabgrass, Naked ([7]; Postemergence, 8 g ai/ha): 30
Plant response rating, Crabgrass, Naked ([7]; Postemergence, 16 g ai/ha): 80
Plant response rating, Crabgrass, Naked ([7]; Postemergence, 31 g ai/ha): 98
Plant response rating, Crabgrass, Naked ([7]; Postemergence, 62 g ai/ha): 100
Plant response rating, Purslane ([8]; 16 g ai/ha, Preemergence): 0
Plant response rating, Purslane ([8]; 31 g ai/ha, Preemergence): 0
Plant response rating, Purslane ([8]; 62 g ai/ha, Preemergence): 0
Plant response rating, Purslane ([8]; Postemergence, 8 g ai/ha): 0
Plant response rating, Purslane ([8]; Postemergence, 16 g ai/ha): 0
Plant response rating, Purslane ([8]; Postemergence, 31 g ai/ha): 0
Plant response rating, Purslane ([8]; Postemergence, 62 g ai/ha): 0
Plant response rating, Mustard, Black ([9]; 16 g ai/ha, Preemergence): 0
Plant response rating, Mustard, Black ([9]; 31 g ai/ha, Preemergence): 0
Plant response rating, Mustard, Black ([9]; 62 g ai/ha, Preemergence): 25
Plant response rating, Mustard, Black ([9]; Postemergence, 8 g ai/ha): 0
Plant response rating, Mustard, Black ([9]; Postemergence, 16 g ai/ha): 0
Plant response rating, Mustard, Black ([9]; Postemergence, 31 g ai/ha): 0
Plant response rating, Mustard, Black ([9]; Postemergence, 62 g ai/ha): 0
Plant response rating, Morningglory ([10]; 16 g ai/ha, Preemergence): 0
Plant response rating, Morningglory ([10]; 31 g ai/ha, Preemergence): 0
Plant response rating, Morningglory ([10]; 62 g ai/ha, Preemergence): 35
Plant response rating, Morningglory ([10]; Postemergence, 8 g ai/ha): 0
Plant response rating, Morningglory ([10]; Postemergence, 16 g ai/ha): 0
Plant response rating, Morningglory ([10]; Postemergence, 31 g ai/ha): 0
Plant response rating, Morningglory ([10]; Postemergence, 62 g ai/ha): 30
Plant response rating, Groundsel ([11]; 16 g ai/ha, Preemergence): 0
Plant response rating, Groundsel ([11]; 31 g ai/ha, Preemergence): 0
Plant response rating, Groundsel ([11]; 62 g ai/ha, Preemergence): 0
Plant response rating, Groundsel ([11]; Postemergence, 8 g ai/ha): 0
Plant response rating, Groundsel ([11]; Postemergence, 16 g ai/ha): 0
Plant response rating, Groundsel ([11]; Postemergence, 31 g ai/ha): 0
Plant response rating, Groundsel ([11]; Postemergence, 62 g ai/ha): 0
Plant response rating, Signalgrass ([12]; 16 g ai/ha, Preemergence): 40
Plant response rating, Signalgrass ([12]; 31 g ai/ha, Preemergence): 98
Plant response rating, Signalgrass ([12]; 62 g ai/ha, Preemergence): 98
Plant response rating, Signalgrass ([12]; Postemergence, 8 g ai/ha): 90
Plant response rating, Signalgrass ([12]; Postemergence, 16 g ai/ha): 95
Plant response rating, Signalgrass ([12]; Postemergence, 31 g ai/ha): 95
Plant response rating, Signalgrass ([12]; Postemergence, 62 g ai/ha): 100
Plant response rating, Bermudagrass ([13]; 16 g ai/ha, Preemergence): 80
Plant response rating, Bermudagrass ([13]; 31 g ai/ha, Preemergence): 98
Plant response rating, Bermudagrass ([13]; 62 g ai/ha, Preemergence): 98
Plant response rating, Bermudagrass ([13]; Postemergence, 8 g ai/ha): 50
Plant response rating, Bermudagrass ([13]; Postemergence, 16 g ai/ha): 70
Plant response rating, Bermudagrass ([13]; Postemergence, 31 g ai/ha): 80
Plant response rating, Bermudagrass ([13]; Postemergence, 62 g ai/ha): 98
Plant response rating, Ryegrass, Italian ([14]; 16 g ai/ha, Preemergence): 90
Plant response rating, Ryegrass, Italian ([14]; 31 g ai/ha, Preemergence): 100
Plant response rating, Ryegrass, Italian ([14]; 62 g ai/ha, Preemergence): 100
Plant response rating, Ryegrass, Italian ([14]; Postemergence, 8 g ai/ha): 80
Plant response rating, Ryegrass, Italian ([14]; Postemergence, 16 g ai/ha): 100
Plant response rating, Ryegrass, Italian ([14]; Postemergence, 31 g ai/ha): 100
Plant response rating, Ryegrass, Italian ([14]; Postemergence, 62 g ai/ha): 100
Plant response rating, Crabgrass, Large ([15]; 16 g ai/ha, Preemergence): 40
Plant response rating, Crabgrass, Large ([15]; 31 g ai/ha, Preemergence): 95
Plant response rating, Crabgrass, Large ([15]; 62 g ai/ha, Preemergence): 100
Plant response rating, Crabgrass, Large ([15]; Postemergence, 8 g ai/ha): 35
Plant response rating, Crabgrass, Large ([15]; Postemergence, 16 g ai/ha): 95
Plant response rating, Crabgrass, Large ([15]; Postemergence, 31 g ai/ha): 95
Plant response rating, Crabgrass, Large ([15]; Postemergence, 62 g ai/ha): 100
Plant response rating, Guineagrass ([16]; 16 g ai/ha, Preemergence): 98
Plant response rating, Guineagrass ([16]; 31 g ai/ha, Preemergence): 100
Plant response rating, Guineagrass ([16]; 62 g ai/ha, Preemergence): 100
Plant response rating, Guineagrass ([16]; Postemergence, 8 g ai/ha): 90
Plant response rating, Guineagrass ([16]; Postemergence, 16 g ai/ha): 98
Plant response rating, Guineagrass ([16]; Postemergence, 31 g ai/ha): 100
Plant response rating, Guineagrass ([16]; Postemergence, 62 g ai/ha): 100
Plant response rating, Goosegrass ([17]; 16 g ai/ha, Preemergence): 80
Plant response rating, Goosegrass ([17]; 31 g ai/ha, Preemergence): 100
Plant response rating, Goosegrass ([17]; 62 g ai/ha, Preemergence): 100
Plant response rating, Goosegrass ([17]; Postemergence, 8 g ai/ha): 20
Plant response rating, Goosegrass ([17]; Postemergence, 16 g ai/ha): 65
Plant response rating, Goosegrass ([17]; Postemergence, 31 g ai/ha): 80
Plant response rating, Goosegrass ([17]; Postemergence, 62 g ai/ha): 95
